Molecular target: T1, […]F508-CFTR (Homo sapiens, UniProt P13569, DEL508-508)
T1 construct: expressed in transfected cells
Experiment: Assay results of Table 3: ΔF508-CFTR modulation, membrane potential optical assay (assay format not stated)
Assay type: cell-based
Details: NIH3T3 mouse fibroblasts stably expressing […]F508-CFTR (optical assays); for Efficacy: efficacy range; for EC50: potency range
Description: A. Membrane Potential Optical Methods for Assaying […]F508-CFTR Modulation Properties of Compounds
The optical membrane potential assay utilized voltage-sensitive FRET sensors described by Gonzalez and Tsien (See, Gonzalez, J. E. and R. Y. Tsien (1995) “Voltage sensing by fluorescence resonance energy transfer in single cells” Biophys J 69(4): 1272-80, and Gonzalez, J. E. and R. Y. Tsien (1997) “Improved indicators of cell membrane potential that use fluorescence resonance energy transfer” Chem Biol 4(4): 269-77) in combination with instrumentation for measuring fluorescence changes such as the Voltage/Ion Probe Reader (VIPR) (See, Gonzalez, J. E., K. Oades, et al. (1999) “Cell-based assays and instrumentation for screening ion-channel targets” Drug Discov Today 4(9): 431-439).
These voltage sensitive assays are based on the change in fluorescence resonant energy transfer (FRET) between the membrane-soluble, voltage-sensitive dye, DiSBAC2(3), and a fluorescent phospholipid, CC2-DMPE, which is attached to the outer leaflet of the plasma membrane and acts as a FRET donor. Changes in membrane potential (Vm) cause the negatively charged DiSBAC2(3) to redistribute across the plasma membrane and the amount of energy transfer from CC2-DMPE changes accordingly. The changes in fluorescence emission were monitored using VIPR™ II, which is an integrated liquid handler and fluorescent detector designed to conduct cell-based screens in 96- or 384-well microtiter plates.
To identify small molecules that correct the trafficking defect associated with ΔF508-CFTR; a single-addition HTS assay format was developed. The cells were incubated in serum-free medium for 16 hrs at 37° C. in the presence or absence (negative control) of test compound. As a positive control, cells plated in 384-well plates were incubated for 16 hrs at 27° C. to “temperature-correct” […]F508-CFTR. The cells were subsequently rinsed 3× with Krebs Ringers solution and loaded with the voltage-sensitive dyes. To activate […]F508-CFTR, 10 µM forskolin and the CFTR potentiator, genistein (20 µM), were added along with Cl^−-free medium to each well. The addition of Cl^−-free medium promoted Cl^− efflux in response to […]F508-CFTR activation and the resulting membrane depolarization was optically monitored using the FRET-based voltage-sensor dyes.
To identify potentiators of […]F508-CFTR, a double-addition HTS assay format was developed. During the first addition, a Cl^−-free medium with or without test compound was added to each well. After 22 sec, a second addition of Cl^−-free medium containing 2-10 µM forskolin was added to activate […]F508-CFTR. The extracellular Cl^− concentration following both additions was 28 mM, which promoted Cl^− efflux in response to […]F508-CFTR activation and the resulting membrane depolarization was optically monitored using the FRET-based voltage-sensor dyes.
Bath Solution #1: (in mM) NaCl 160, KCl 4.5, CaCl2 2, MgCl2 1, HEPES 10, pH 7.4 with NaOH.
Chloride-free bath solution: Chloride salts in Bath Solution #1 are substituted with gluconate salts.
CC2-DMPE: Prepared as a 10 mM stock solution in DMSO and stored at −20° C.
DiSBAC2(3): Prepared as a 10 mM stock in DMSO and stored at −20° C.
NIH3T3 mouse fibroblasts stably expressing […]F508-CFTR are used for optical measurements of membrane potential. The cells are maintained at 37° C. in 5% CO2 and 90% humidity in Dulbecco's modified Eagle's medium supplemented with 2 mM glutamine, 10% fetal bovine serum, 1× NEAA, […]-ME, 1× pen/strep, and 25 mM HEPES in 175 cm^2 culture flasks. For all optical assays, the cells were seeded at 30,000/well in 384-well matrigel-coated plates and cultured for 2 hrs at 37° C. before culturing at 27° C. for 24 hrs for the potentiator assay. For the correction assays, the cells are cultured at 27° C. or 37° C. with and without compounds for 16-24 hoursB.

T1 sequence (P13569 with tags, fused parts or gaps DEL508-508): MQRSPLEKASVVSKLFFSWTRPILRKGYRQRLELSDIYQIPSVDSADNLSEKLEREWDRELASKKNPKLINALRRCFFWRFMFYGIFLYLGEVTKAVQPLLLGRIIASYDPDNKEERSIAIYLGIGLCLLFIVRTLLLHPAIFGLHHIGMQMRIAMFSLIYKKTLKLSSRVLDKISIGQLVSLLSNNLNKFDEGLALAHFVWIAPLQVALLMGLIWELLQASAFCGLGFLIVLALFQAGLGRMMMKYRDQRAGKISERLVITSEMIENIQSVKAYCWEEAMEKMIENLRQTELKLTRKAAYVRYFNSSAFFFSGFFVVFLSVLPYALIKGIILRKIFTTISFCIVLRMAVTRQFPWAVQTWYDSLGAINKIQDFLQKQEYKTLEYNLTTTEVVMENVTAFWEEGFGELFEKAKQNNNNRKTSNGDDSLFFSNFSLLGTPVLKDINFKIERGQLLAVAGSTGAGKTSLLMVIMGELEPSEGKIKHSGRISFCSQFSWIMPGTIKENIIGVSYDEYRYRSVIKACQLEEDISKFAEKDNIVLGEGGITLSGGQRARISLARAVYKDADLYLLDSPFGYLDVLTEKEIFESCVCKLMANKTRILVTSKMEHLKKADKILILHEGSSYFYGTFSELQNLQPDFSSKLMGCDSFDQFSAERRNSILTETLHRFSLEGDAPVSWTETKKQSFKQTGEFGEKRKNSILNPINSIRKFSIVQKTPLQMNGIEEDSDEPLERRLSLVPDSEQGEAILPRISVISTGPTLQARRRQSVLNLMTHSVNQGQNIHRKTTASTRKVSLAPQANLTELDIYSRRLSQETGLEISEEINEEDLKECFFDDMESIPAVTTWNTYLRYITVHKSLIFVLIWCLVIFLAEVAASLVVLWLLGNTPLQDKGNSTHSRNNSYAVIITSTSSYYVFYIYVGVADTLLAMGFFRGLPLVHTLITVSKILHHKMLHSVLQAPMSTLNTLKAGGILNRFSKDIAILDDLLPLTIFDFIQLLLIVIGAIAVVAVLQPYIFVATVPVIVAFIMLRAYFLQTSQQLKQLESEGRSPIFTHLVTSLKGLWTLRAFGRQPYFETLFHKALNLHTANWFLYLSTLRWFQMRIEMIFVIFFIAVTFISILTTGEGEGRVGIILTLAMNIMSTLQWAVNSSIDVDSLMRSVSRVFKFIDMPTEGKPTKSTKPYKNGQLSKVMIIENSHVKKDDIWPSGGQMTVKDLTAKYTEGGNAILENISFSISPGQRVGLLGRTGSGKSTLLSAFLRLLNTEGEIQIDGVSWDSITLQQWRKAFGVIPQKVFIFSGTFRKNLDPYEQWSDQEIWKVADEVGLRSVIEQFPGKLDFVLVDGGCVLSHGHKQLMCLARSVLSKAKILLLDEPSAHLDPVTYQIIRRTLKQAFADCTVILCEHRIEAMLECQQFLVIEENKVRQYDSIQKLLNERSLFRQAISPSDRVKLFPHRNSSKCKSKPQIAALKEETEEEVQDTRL

EC50 [µM]	SMILES	Efficacy
> 5	O=C(c1cc(-c2ccccc2)nc(N2CC=CC2)n1)N1CC=CC1 [Compound 93]	++ (++ corresponds to Efficacy between 100 and 50)
1 to 5	CCN(CC)c1nc(C(N)=O)cc(-c2ccccc2F)n1 [Compound 94]	+++ (+++ corresponds to Efficacy greater than 100)
1 to 5	NC(=O)c1cc(-c2cccc(Cl)c2Cl)nc(N2CCCCC2)n1 [Compound 95]	++ (++ corresponds to Efficacy between 100 and 50)
> 5	CCN(CC)c1nc(C(=O)NCc2ccccc2)cc(-c2ccccc2)n1 [Compound 97]	++ (++ corresponds to Efficacy between 100 and 50)
> 5	CN(CC(O)c1ccccc1)c1nc(C(N)=O)cc(-c2ccccc2)n1 (centres unmarked) [Compound 101]	+++ (+++ corresponds to Efficacy greater than 100)
< 1	CNC(=O)c1cc(-c2ccccc2)nc(NC)n1 [Compound 103]	+ (+ corresponds to Efficacy less than 50)
1 to 5	NC(=O)c1cc(-c2ccc(Cl)cc2Cl)nc(N2CCCCC2)n1 [Compound 106]	+++ (+++ corresponds to Efficacy greater than 100)
< 1	CCN(CC)c1nc(C(N)=O)cc(-c2ccc(F)cc2F)n1 [Compound 107]	++ (++ corresponds to Efficacy between 100 and 50)
< 1	CCN(CC)c1nc(C(N)=O)cc(-c2ccccc2OC)n1 [Compound 110]	+++ (+++ corresponds to Efficacy greater than 100)
1 to 5	COc1ccc(Cl)cc1-c1cc(C(N)=O)nc(N2CCCCC2)n1 [Compound 115]	++ (++ corresponds to Efficacy between 100 and 50)
< 1	CCN(CC)c1nc(C(N)=O)cc(-c2ccccc2)n1 [Compound 119]	+++ (+++ corresponds to Efficacy greater than 100)
< 1	CCN(CC)c1nc(C(N)=O)cc(-c2cccc(C)c2C)n1 [Compound 120]	++ (++ corresponds to Efficacy between 100 and 50)
1 to 5	CCCCN(CC)c1nc(C(N)=O)cc(-c2ccccc2)n1 [Compound 121]	+++ (+++ corresponds to Efficacy greater than 100)
> 5	NC(=O)c1cc(-c2cccc(F)c2)nc(N2CCCCC2)n1 [Compound 122]	+++ (+++ corresponds to Efficacy greater than 100)
1 to 5	COc1ccc(-c2cc(C(N)=O)nc(N3CCCCC3)n2)cc1OC [Compound 124]	+++ (+++ corresponds to Efficacy greater than 100)
1 to 5	CCOc1ccccc1-c1cc(C(N)=O)nc(N2CCCCC2)n1 [Compound 127]	++ (++ corresponds to Efficacy between 100 and 50)
> 5	CN(C)C(=O)c1cc(-c2ccccc2)nc(NCc2ccco2)n1 [Compound 128]	+ (+ corresponds to Efficacy less than 50)
> 5	COc1ccc(-c2cc(C(N)=O)nc(N3CC=CCC3)n2)cc1 [Compound 129]	++ (++ corresponds to Efficacy between 100 and 50)

Second part, the compound before the results:

SMILES	EC50 [µM]	Efficacy
CCCN(CC1CC1)c1nc(C(N)=O)cc(-c2cccc(OC)c2)n1 [Compound 89]	1 to 5	+++ (+++ corresponds to Efficacy greater than 100)
COc1ccccc1-c1cc(C(N)=O)nc(N(CCO)CCO)n1 [Compound 90]	> 5	+ (+ corresponds to Efficacy less than 50)
CCNC(=O)c1cc(-c2ccccc2)nc(N(CC)CC)n1 [Compound 91]	1 to 5	+++ (+++ corresponds to Efficacy greater than 100)
NC(=O)c1cc(-c2ccccc2)nc(N(Cc2ccccc2)Cc2ccccc2)n1 [Compound 92]	1 to 5	++ (++ corresponds to Efficacy between 100 and 50)
NC(=O)c1cc(-c2ccccc2)nc(N2CCC(O)(c3cccc(C(F)(F)F)c3)CC2)n1 [Compound 96]	> 5	++ (++ corresponds to Efficacy between 100 and 50)
CCN(CC)c1nc(C(N)=O)cc(-c2cccc(Cl)c2)n1 [Compound 98]	< 1	+++ (+++ corresponds to Efficacy greater than 100)
CCOC(=O)C1CCN(c2nc(C(N)=O)cc(-c3ccccc3)n2)CC1 [Compound 99]	1 to 5	+ (+ corresponds to Efficacy less than 50)
CCCN(CCO)c1nc(C(N)=O)cc(-c2ccccc2)n1 [Compound 100]	1 to 5	++ (++ corresponds to Efficacy between 100 and 50)
CCNc1nc(C(N)=O)cc(-c2ccc(OC)cc2)n1 [Compound 102]	> 5	++ (++ corresponds to Efficacy between 100 and 50)
CC(C)CCN(CCC(C)C)c1nc(C(N)=O)cc(-c2ccccc2)n1 [Compound 104]	1 to 5	+ (+ corresponds to Efficacy less than 50)
COc1cccc(-c2cc(C(N)=O)nc(N3CCCCC3)n2)c1F [Compound 105]	> 5	+++ (+++ corresponds to Efficacy greater than 100)
CCN(CC)c1nc(C(N)=O)cc(-c2c(OC)cccc2OC)n1 [Compound 108]	> 5	++ (++ corresponds to Efficacy between 100 and 50)
CCN(CC)c1nc(C(N)=O)cc(-c2ccc(OC)cc2)n1 [Compound 109]	< 1	+++ (+++ corresponds to Efficacy greater than 100)
N#Cc1cccc(-c2cc(C(N)=O)nc(N3CCCCC3)n2)c1 [Compound 111]	> 5	++ (++ corresponds to Efficacy between 100 and 50)
NC(=O)c1cc(-c2ccccc2)nc(NC2CCCC2)n1 [Compound 112]	> 5	+ (+ corresponds to Efficacy less than 50)
CC1CC(C)CN(c2nc(C(N)=O)cc(-c3ccccc3)n2)C1 (centres unmarked) [Compound 113]	1 to 5	++ (++ corresponds to Efficacy between 100 and 50)
Cc1ccccc1-c1cc(C(N)=O)nc(N2CCCCC2)n1 [Compound 114]	1 to 5	+++ (+++ corresponds to Efficacy greater than 100)
CCc1ccc(-c2cc(C(N)=O)nc(N(CC)CC)n2)cc1 [Compound 116]	1 to 5	+++ (+++ corresponds to Efficacy greater than 100)
CCN(CC)c1nc(C(=O)N(C)C)cc(-c2ccccc2)n1 [Compound 117]	> 5	+++ (+++ corresponds to Efficacy greater than 100)
CCCCN(CCC)c1nc(C(N)=O)cc(-c2ccccc2)n1 [Compound 118]	< 1	++ (++ corresponds to Efficacy between 100 and 50)
CCN(CCO)c1nc(C(N)=O)cc(-c2cccc(OC)c2)n1 [Compound 123]	> 5	+ (+ corresponds to Efficacy less than 50)
CCN(CC)c1nc(C(N)=O)cc(-c2c(F)cccc2F)n1 [Compound 125]	< 1	++ (++ corresponds to Efficacy between 100 and 50)
NC(=O)c1cc(-c2ccccc2)nc(NCc2ccccc2)n1 [Compound 126]	> 5	++ (++ corresponds to Efficacy between 100 and 50)
N#Cc1ccc(-c2cc(C(N)=O)nc(N3CCCCC3)n2)cc1 [Compound 130]	> 5	+ (+ corresponds to Efficacy less than 50)
CCN(CC)c1nc(C(N)=O)cc(-c2ccc(F)c(C)c2)n1 [Compound 131]	1 to 5	+++ (+++ corresponds to Efficacy greater than 100)

— patent US8822451B2, “Modulators of ATP-binding cassette transporters” (Vertex Pharmaceuticals Incorporated, priority 2005, dated 2014)
